Counter-ions that a name gives are not always drawn.

For orientation: IC50 means the midpoint of a concentration-inhibition curve. A higher IC50 goes with a need for much substance.

This test has as its target T1, G288S mutant KCNT1 channels (Homo sapiens, UniProt Q5JUK3, G269S).
T1 construct: YFP-6His; expressed in transfected cells; host or cells: HEK293T
T1 sequence (Q5JUK3 1-1235 isoform Q5JUK3-3 G288S): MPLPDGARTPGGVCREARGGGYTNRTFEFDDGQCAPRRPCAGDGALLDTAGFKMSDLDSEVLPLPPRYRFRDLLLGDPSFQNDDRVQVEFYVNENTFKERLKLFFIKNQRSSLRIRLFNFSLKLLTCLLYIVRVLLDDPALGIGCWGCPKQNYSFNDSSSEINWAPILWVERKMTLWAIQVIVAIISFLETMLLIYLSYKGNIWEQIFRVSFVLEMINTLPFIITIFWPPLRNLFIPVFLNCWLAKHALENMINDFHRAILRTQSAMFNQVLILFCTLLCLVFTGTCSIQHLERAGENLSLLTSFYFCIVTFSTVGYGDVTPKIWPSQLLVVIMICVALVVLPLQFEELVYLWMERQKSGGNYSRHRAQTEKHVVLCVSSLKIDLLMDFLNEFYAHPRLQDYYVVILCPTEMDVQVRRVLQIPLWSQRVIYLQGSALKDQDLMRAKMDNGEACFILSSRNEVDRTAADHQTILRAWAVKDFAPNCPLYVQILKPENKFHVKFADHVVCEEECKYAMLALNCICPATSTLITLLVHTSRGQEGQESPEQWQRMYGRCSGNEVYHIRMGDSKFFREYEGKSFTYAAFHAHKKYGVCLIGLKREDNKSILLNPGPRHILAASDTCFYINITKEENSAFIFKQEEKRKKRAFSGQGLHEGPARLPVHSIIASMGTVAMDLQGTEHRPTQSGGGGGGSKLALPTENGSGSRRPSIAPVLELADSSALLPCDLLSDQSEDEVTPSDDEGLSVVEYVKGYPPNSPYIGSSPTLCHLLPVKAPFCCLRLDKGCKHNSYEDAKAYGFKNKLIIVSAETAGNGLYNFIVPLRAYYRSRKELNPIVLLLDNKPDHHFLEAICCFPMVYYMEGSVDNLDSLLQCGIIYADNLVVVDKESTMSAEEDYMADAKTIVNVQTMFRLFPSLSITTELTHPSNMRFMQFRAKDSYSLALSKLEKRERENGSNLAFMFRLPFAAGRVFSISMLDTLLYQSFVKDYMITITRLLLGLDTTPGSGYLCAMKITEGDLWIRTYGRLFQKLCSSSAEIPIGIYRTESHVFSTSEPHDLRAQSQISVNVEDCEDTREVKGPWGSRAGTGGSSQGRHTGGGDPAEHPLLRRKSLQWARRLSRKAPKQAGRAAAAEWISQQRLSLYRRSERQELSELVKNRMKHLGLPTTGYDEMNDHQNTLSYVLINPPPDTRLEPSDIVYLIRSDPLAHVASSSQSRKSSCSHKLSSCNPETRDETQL
Kind of test: Inside-out patch clamp of HEK293T cells expressing G288S KCNT1. The format is cell-based. Conditions: inside-out patches, mean ± SEM. As for the experimental part:
The CHO cells were cultured in Dulbecco's modified Eagle's Medium (ThermoFisher, UK) supplemented with 10% (v/v) fetal bovine serum, 50 U/ml penicillin and 0.05 mg/ml streptomycin, and incubated at 37°C in 5% CO2 atmosphere. For whole cell recording of WT/Y796H KCNT1, CHO cells were transiently co‐transfected with concatemeric WT/Y796H and EYFP, as described previously.[29] For electrophysiological experiments, cells were plated onto borosilicate glass cover slips and used 2 to 4 days later. Human embryonic kidney 293T cells (HEK293T) were cultured in the same manner, but with medium supplemented with 2 mM L‐glutamine, and 1% (v/v) nonessential amino acids. For excised inside‐out recording of homomeric WT or mutant YFP‐tagged KCNT1, HEK293T cells plated on glass cover slips were transfected using Attractene Transfection Reagent (Qiagen, Germany) according to the manufacturer's instructions and used 2 to 3 days later.
Inside‐out patch clamp recordings were made at room temperature (23°C) from transiently transfected HEK293T cells, as described previously.[11] The pipette solution contained, in mM, 140 NaCl, 4 KCl, 2 CaCl2, 2 MgCl2, and 10 HEPES adjusted to pH 7.4 with NaOH. […] KCNT1 currents were recorded using 2 voltage protocols, depending on the number of active channels in the patch before drug application. Macroscopic currents (number of active channels > 15) were recorded in response to 100 ms voltage ramps between −120 and 120 mV applied every 2 seconds from a holding potential of −78 mV. […] With a lower number of active channels in the patch (3–15), current traces were recorded in response to 15‐second voltage steps to −20, 0, and 20 mV from a holding potential of −78 mV. Currents recorded at each voltage and each drug concentration were averaged over the duration of the trace and normalized to the average amplitudes of the corresponding current traces in drug‐free solution. […] Single channel data were analyzed using Ana software developed by Dr Michael Pusch (Istituto di Biofisica, Genova, Italy; http://users.ge.ibf.cnr.it/pusch/programs-mik.htm). […]
On the technique in general: Patch clamp records ionic current or voltage across a cell membrane.
Take `Cc1c(O)cccc1C(=O)N[C@@H](CSc1ccccc1)[C@H](O)CN1C[C@H]2CCCC[C@H]2C[C@H]1C(=O)NC(C)(C)C` [nelfinavir mesylate]: inhibition was half-maximal at 9.5 ± 1.8 nM (IC50).

For `O=C(OCCN1CCN(c2cccc(C(F)(F)F)c2)CC1)c1ccccc1Nc1ccnc2cc(C(F)(F)F)ccc12` [antrafenine], 13.3 ± 3.7 nM corresponded to half-maximal inhibition (IC50). `CC(C)c1c(C(=O)Nc2ccccc2)c(-c2ccccc2)c(-c2ccc(F)cc2)n1CC[C@@H](O)C[C@@H](O)CC(=O)O` [atorvastatin] came in with an IC50 of 2600 ± 1600 nM.

Source of the values: paper PMC12682947, “Identification of New KCNT1‐Epilepsy Drugs by In Silico, Cell, and Drosophila Modeling” (Annals of Neurology, 2025).
